Activity calls are given as the source filed them. No cut-off for these calls is given here.
Key:
NCI-H292 [1] = test: Antiinflammatory activity against PMA-stimulated human NCI-H292 cells assessed as reduction in MUC5AC secretion at 1 uM incubated for 24 hrs by ELISA; type: functional, cell-based
NCI-H292 [2] = test: Antiinflammatory activity against PMA-stimulated human NCI-H292 cells assessed as reduction in IL-8 secretion at 1 uM incubated for 24 hrs by ELISA; type: functional, cell-based
NCI-H292 [3] = test: Cytotoxicity against human NCI-H292 cells assessed as redcution in cell viability at 0.25 to 1 uM incubated for 24 hrs in presence of PMA by CCK-8 assay; type: toxicity, cell-based; settings: nci-h292, 24 h, dose 0.25-1 µM

SMILES	Activity (NCI-H292 [1])	Activity (NCI-H292 [2])	Activity (NCI-H292 [3])
O=C(/C=C/c1ccc(Oc2ccc(/C=C/C(=O)c3ccc(O)cc3O)cc2O)cc1)c1ccc(O)cc1O	Active; Effectively Inhibited The Secretion	Active; Effectively Inhibited The Secretion	
O=C1C[C@@H](c2ccc(O)cc2)Oc2cc(Oc3ccc([C@@H]4[C@@H](C(=O)c5ccc(O)cc5O)[C@H](C(=O)c5ccc(O)cc5O)[C@H]4c4ccc(O)cc4)cc3O)ccc21	Active	Active	
O=C(/C=C/c1ccc(O)c(-c2cc(C(=O)/C=C/c3ccc(O)cc3)c(O)cc2O)c1)c1ccc(O)cc1O	Active	Active	
O=C(/C=C/c1ccc(Oc2ccc([C@@H]3[C@@H](C(=O)c4ccc(O)cc4O)[C@H](C(=O)c4ccc(O)cc4O)[C@H]3c3ccc(O)cc3)cc2O)cc1)c1ccc(O)cc1O	Active; Effectively Inhibited The Secretion	Active; Effectively Inhibited The Secretion	
O=C(/C=C/c1ccc(Oc2ccc([C@H]3Oc4cc(O)ccc4C(=O)[C@@H]3[C@@H]3C(=O)c4ccc(O)cc4O[C@H]3c3ccc(O)c(O)c3)cc2)cc1)c1ccc(O)cc1O			Toxic
O=C(/C=C/c1ccc(Oc2cc(C(=O)/C=C/c3ccc(O)cc3)c(O)cc2O)cc1)c1ccc(O)cc1O	Active; Effectively Inhibited The Secretion	Active; Effectively Inhibited The Secretion	
O=C(/C=C/c1ccc(O)cc1)c1ccc2c(c1O)[C@H](C(=O)c1ccc(O)cc1O)[C@@H](c1ccc(O)cc1)O2	Active	Active	
O=C(/C=C/c1ccc(Oc2c(O)ccc(C(=O)/C=C/c3ccc(O)cc3)c2O)cc1)c1ccc(O)cc1	Active	inactive	

Source: ChEMBL document CHEMBL6153121, “Anti-Inflammatory Dimeric and Trimeric Flavonoids from the Roots ofPistacia weinmannifolia” (J Nat Prod, 2025)
